In patent publication US20250388565A1, “ESTROGEN RECEPTOR ALPHA DEGRADERS AND METHODS OF USE THEREOF” (Relay Therapeutics, Inc., priority 2022, published 2025) one finds DC50 data, which are given here for 25 compounds.

For the experiment, the target named is T1, ERα protein (HiBiT-tagged) in ESR1_HiBiT KI MCF7 cells (Homo sapiens, UniProt P03372).
T1 sequence (P03372 1-595): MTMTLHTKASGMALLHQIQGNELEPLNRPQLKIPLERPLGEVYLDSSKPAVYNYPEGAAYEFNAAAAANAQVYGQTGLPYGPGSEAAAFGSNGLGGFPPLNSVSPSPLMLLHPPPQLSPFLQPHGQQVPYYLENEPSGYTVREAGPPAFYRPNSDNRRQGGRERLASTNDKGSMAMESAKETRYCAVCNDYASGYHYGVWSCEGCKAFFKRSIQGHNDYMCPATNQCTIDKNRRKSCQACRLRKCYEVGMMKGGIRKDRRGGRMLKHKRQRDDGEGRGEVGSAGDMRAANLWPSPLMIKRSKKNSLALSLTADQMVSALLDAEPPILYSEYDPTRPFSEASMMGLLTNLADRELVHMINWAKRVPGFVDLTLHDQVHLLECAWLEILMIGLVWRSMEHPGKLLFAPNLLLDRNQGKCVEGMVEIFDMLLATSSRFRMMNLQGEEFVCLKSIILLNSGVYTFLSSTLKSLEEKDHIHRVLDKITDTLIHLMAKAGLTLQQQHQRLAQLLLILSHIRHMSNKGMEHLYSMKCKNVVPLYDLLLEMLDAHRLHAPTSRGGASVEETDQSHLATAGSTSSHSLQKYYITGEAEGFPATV
Description: Nano Glo HiBiT Lytic Degradation Assay. The format is cell-based. As to conditions: 6 hours with compound, 14-point dose response 1:3, bell-shape curve fit, half-maximal effect of first Hill model, read-out: MCF7 ESR1 HiBiT - (DC50). In a few lines: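 Lytic Nano-Glo HiBiT luminescence quantified ERα remaining after a 6 h, 37° C compound exposure of MCF7 cells carrying endogenous HiBiT-tagged ESR1. Dosing used 14 threefold dilutions from a 10 mM DMSO stock (0.1% DMSO final), run in duplicate. Signals were corrected for cell-free background and expressed relative to DMSO, and DC50 came from a bell-shaped curve fit (first Hill model half-maximum).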
(In general: HiBiT is a short tag that completes a luciferase, so light tracks the accessible tagged protein.)
By DC50 is commonly meant the concentration at which degradation of the target reaches its halfway point. Consider `O=C1CC[C@H](N2Cc3cc(N4CCN(CC5CCN(c6ccc([C@H]7c8ccc(O)cc8CO[C@H]7CC7CCCC7)cc6)CC5)CC4)ccc3C2=O)C(=O)N1` (single isomer, unassigned) [Compound I-233], for which the DC50 turned out to be 31 nM.

As for `Cc1cc(F)c([C@@H]2CC(F)(F)c3cc(O)ccc3[C@@H]2c2ccc(N3CCC(CN4CCN(c5ccc6c(c5)CN([C@H]5CCC(=O)NC5=O)C6=O)CC4)CC3)cc2)cc1F` (single isomer, unassigned) [Compound I-325], the DC50 was found to be 11 nM.

As to `Cc1cc(F)cc(F)c1[C@H]1CCc2cc(O)ccc2[C@H]1c1ccc(N2CCC(CN3CCN(c4ccc5c(c4)CN([C@H]4CCC(=O)NC4=O)C5=O)CC3)CC2)cc1` [II-74], the DC50 stood at 0.13 nM.

In the case of `C[C@@H]1C[C@@H](c2ccccc2)[C@@H](c2ccc(N3CCC(CN4CCN(c5ccc6c(c5)CN([C@H]5CCC(=O)NC5=O)C6=O)CC4)CC3)cc2)c2ccc(O)cc21` (single isomer, unassigned) [Compound I-332], the DC50 is no less than 10000 nM.

Turning to `O=C1CC[C@H](N2Cc3cc(N4CCN(CC5CCN(c6ccc([C@H]7c8ccc(O)cc8CO[C@H]7C7CCCCC7)cc6)CC5)CC4)ccc3C2=O)C(=O)N1` [Compound I-250, (S)-3-(5-(4-((1-(4-((3S,4S)-3-cyclohexyl-7-hydroxyisochroman-4-yl)phenyl)piperidin-4-yl)methyl)piperazin-1-yl)-1-oxoisoindolin-2-yl)piperidine-2,6-dione], the DC50 came to 64 nM.

In the case of `O=C1CC[C@H](N2Cc3cc(N4CCN(CC5CCN(c6ccc([C@@H]7c8ccc(O)cc8CC[C@@H]7c7ccccc7)cc6F)CC5)CC4)ccc3C2=O)C(=O)N1` [II-82], the DC50 is 0.84 nM.

In the case of `C[C@H]1O[C@H](C2CCCCC2)[C@@H](c2ccc(N3CCC(CN4CCN(c5ccc6c(c5)CN([C@H]5CCC(=O)NC5=O)C6=O)CC4)CC3)cc2)c2ccc(O)cc21` (single isomer, unassigned) [Compound I-255], the DC50 is 0.87 nM.

For `O=C1CC[C@H](N2Cc3cc(N4CCN(CC5CCN(c6ccc([C@@H]7c8ccc(O)cc8CO[C@@H]7c7ccc8c(c7)CC8)cc6)CC5)CC4)ccc3C2=O)C(=O)N1` (single isomer, unassigned) [Compound I-363], the DC50 is 0.17 nM.

For the compound `O=C1CCN(c2ccc(N3CC[C@@]4(CCN(CC5CCN(c6ccc([C@@H]7c8ccc(O)cc8C(F)(F)C[C@@H]7c7ccccc7)cc6)CC5)C4)C3)cc2)C(=O)N1` (single isomer, unassigned) [Compound I-290], the DC50 is 0.22 nM.

As to `O=C1CC[C@H](N2Cc3cc(N4CCN(CC5CCN(c6ccc([C@@H]7c8ccc(O)cc8C(F)(F)C[C@@H]7c7ccccc7)cc6)CC5)CC4)ccc3C2=O)C(=O)N1` [Compound I-51, (S)-3-(5-(4-((1-(4-((1R,2S)-4,4-difluoro-6-hydroxy-2-phenyl-1,2,3,4-tetrahydronaphthalen-1-yl)phenyl)piperidin-4-yl)methyl)piperazin-1-yl)-1-oxoisoindolin-2-yl)piperidine-2,6-dione], the half-maximal degradation concentration (DC50) amounted to 0.45 nM.

`O=C1CC[C@H](N2Cc3cc(N4CCN(CC5CCN(c6ccc([C@H]7c8ccc(C(=O)O)cc8CC[C@H]7c7ccccc7)cc6)CC5)CC4)ccc3C2=O)C(=O)N1` (single isomer, unassigned) [Compound I-1]: the DC50 was determined as 3 nM.

For the compound `COc1ccc2c(c1)CC[C@H](c1ccccc1)[C@@H]2c1ccc(N2CCC(CN3CCN(c4ccc5c(c4)CN([C@H]4CCC(=O)NC4=O)C5=O)CC3)CC2)cc1` [II-59], the DC50 is no less than 10000 nM.

With `Cn1nc(N2CCC(=O)NC2=O)c2ccc(N3CCN(CC4CCN(c5ccc([C@@H]6c7ccc(O)cc7CO[C@@H]6c6ccccc6)cc5)CC4)CC3)cc21` [Compound I-396, 1-(6-(4-((1-(4-((3S,4R)-7-hydroxy-3-phenylisochroman-4-yl)phenyl)piperidin-4-yl)methyl)piperazin-1-yl)-1-methyl-1H-indazol-3-yl)dihydropyrimidine-2,4 (1H,3H)-dione], the DC50 was 0.99 nM.

Take `O=C1CC[C@H](N2Cc3cc(N4CCN(CC5CCN(c6ccc([C@H]7c8ccc(O)cc8C(F)(F)C[C@H]7c7ccccc7)cc6)CC5)CC4)ccc3C2=O)C(=O)N1` [Compound I-13]: the DC50 was determined as 13 nM.

For `C[C@@H]1CCc2cc(O)ccc2[C@@H]1c1ccc(N2CCC(CN3CCN(c4ccc5c(c4)CN([C@H]4CCC(=O)NC4=O)C5=O)CC3)CC2)cc1` [Compound I-125, (S)-3-(5-(4-((1-(4-((1S,2R)-6-hydroxy-2-methyl-1,2,3,4-tetrahydronaphthalen-1-yl)phenyl)piperidin-4-yl)methyl)piperazin-1-yl)-1-oxoisoindolin-2-yl)piperidine-2,6-dione], the half-maximal degradation concentration (DC50) worked out at 3300 nM.

Turning to `O=C1CC[C@H](N2Cc3cc(N4CCN(CC5CCN(c6ccc([C@H]7c8ccc(O)cc8CO[C@H]7c7ccccc7)cc6)CC5)CC4)ccc3C2=O)C(=O)N1` [Compound I-4, (S)-3-(5-(4-((1-(4-((3R,4S)-7-hydroxy-3-phenylisochroman-4-yl)phenyl)piperidin-4-yl)methyl)piperazin-1-yl)-1-oxoisoindolin-2-yl)piperidine-2,6-dione], the DC50 was found to be 59.4 nM.

In the case of `Cc1cc(F)ccc1[C@@H]1OCc2cc(O)ccc2[C@@H]1c1ccc(N2CCC(CN3CCN(c4ccc5c(c4)CN([C@H]4CCC(=O)NC4=O)C5=O)CC3)CC2)cc1` [Compound I-372, (S)-3-(5-(4-((1-(4-((3R,4S)-3-(4-fluoro-2-methylphenyl)-7-hydroxyisochroman-4-yl)phenyl)piperidin-4-yl)methyl)piperazin-1-yl)-1-oxoisoindolin-2-yl)piperidine-2,6-dione], the DC50 is 27 nM.

As for `Cn1ccc([C@H]2CCc3cc(O)ccc3[C@H]2c2ccc(N3CCC(CN4CCN(c5ccc6c(c5)CN([C@H]5CCC(=O)NC5=O)C6=O)CC4)CC3)cc2)n1` (single isomer, unassigned) [Compound I-28], the DC50 is no less than 10000 nM.

Turning to `O=C1CC[C@H](N2Cc3cc(N4CCN(CC5CCN(c6ccc([C@H]7c8ccc(O)cc8CC[C@H]7C7CCC(F)(F)CC7)cc6)CC5)CC4)ccc3C2=O)C(=O)N1` (single isomer, unassigned) [Compound I-55], the DC50 stood at 0.41 nM.

With `C[C@H]1O[C@@H](C2CCCCC2)[C@@H](c2ccc(N3CCC(CN4CCN(c5ccc6c(c5)CN([C@H]5CCC(=O)NC5=O)C6=O)CC4)CC3)cc2)c2ccc(O)cc21` [Compound I-251, (S)-3-(5-(4-((1-(4-((1R,3S,4S)-3-cyclohexyl-7-hydroxy-1-methylisochroman-4-yl)phenyl)piperidin-4-yl)methyl)piperazin-1-yl)-1-oxoisoindolin-2-yl)piperidine-2,6-dione], the DC50 is 44 nM.

As to `O=C1CCC(c2cccc(N3CCC4C3CCN4CC3CCN(c4ccc([C@@H]5c6ccc(O)cc6CC[C@@H]5c5ccccc5)cc4)CC3)c2)C(=O)N1` (stereo in doubt) [Compound I-178, 3-(3-((3aS,6aS)-4-((1-(4-((1R,2S)-6-hydroxy-2-phenyl-1,2,3,4-tetrahydronaphthalen-1-yl)phenyl)piperidin-4-yl)methyl)hexahydropyrrolo[3,2-b]pyrrol-1 (2H)-yl)phenyl)piperidine-2,6-dione], the DC50 is 3300 nM.

For `CC(C)[C@@H]1CCc2cc(O)ccc2[C@@H]1c1ccc(N2CCC(CN3CCN(c4ccc5c(c4)CN(C4CCC(=O)NC4=O)C5=O)CC3)CC2)cc1` (stereo in doubt) [Compound I-129, (R)-3-(5-(4-((1-(4-((1S,2S)-6-hydroxy-2-isopropyl-1,2,3,4-tetrahydronaphthalen-1-yl)phenyl)piperidin-4-yl)methyl)piperazin-1-yl)-1-oxoisoindolin-2-yl)piperidine-2,6-dione], the DC50 came out at 5 nM.

`O=C1CC[C@H](N2Cc3cc(N4CCN(CC5CCN(c6ccc([C@@H]7c8ccc(B(O)O)cc8CC[C@@H]7c7ccccc7)cc6)CC5)CC4)ccc3C2=O)C(=O)N1` [Compound I-45, ((5R,6S)-5-(4-(4-((4-(2-((S)-2,6-dioxopiperidin-3-yl)-1-oxoisoindolin-5-yl)piperazin-1-yl)methyl)piperidin-1-yl)phenyl)-6-phenyl-5,6,7,8-tetrahydronaphthalen-2-yl)boronic acid]: the DC50 came to 3 nM.

On to `C[C@@H]1O[C@@H](c2ccccc2)[C@@H](c2ccc(N3CCC(CN4CCN(c5ccc6c(c5)CN([C@H]5CCC(=O)NC5=O)C6=O)CC4)CC3)cc2)c2ccc(O)cc21` (single isomer, unassigned) [Compound I-368], for which the DC50 was determined as 3 nM.

As to `O=C1CC[C@H](N2Cc3cc(N4CCN(CC5CCN(c6ccc([C@H]7c8ccc(O)cc8CO[C@H]7c7ccc8c(c7)CCC8)cc6)CC5)CC4)ccc3C2=O)C(=O)N1` [Compound I-366, (S)-3-(5-(4-((1-(4-((3R,4S)-3-(2,3-dihydro-1H-inden-5-yl)-7-hydroxyisochroman-4-yl)phenyl)piperidin-4-yl)methyl)piperazin-1-yl)-1-oxoisoindolin-2-yl)piperidine-2,6-dione], the DC50 is no less than 10000 nM.
